From ChEMBL document CHEMBL1201862, “PubChem BioAssay data set” (2004)
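Tested at 5 concentrations; 48 h exposure; 96-well plates; endpoints linearly interpolated, else capped at highest concentration. At the GI50, growth is halved.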 Calls of active or inactive are those of the source. Cut-off read from the data, not from the text of the source: active = GI50 up to about 1.1 µM and inactive = higher.

What was measured:
Experiment in all cases: NCI anticancer screen, dose series, 48 h
HCT-15 = system: HCT-15
SNB-19 = system: SNB-19
SK-MEL-2 = system: SK-MEL-2
PC-3 = system: PC-3
NCI-H226 = system: NCI-H226
HOP-62 = system: HOP-62
UACC-62 = system: UACC-62
OVCAR-4 = system: OVCAR-4
UACC-257 = system: UACC-257
SN12C = system: SN12C
HCT-116 = system: HCT-116
OVCAR-5 = system: OVCAR-5
SK-MEL-28 = system: SK-MEL-28
COLO 205 = system: COLO 205
NCI-H522 = system: NCI-H522
KM12 = system: KM12
A498 = system: A498
MDA-N = system: MDA-N
NCI-H460 = system: NCI-H460
NCI-H23 = system: NCI-H23
TK-10 = system: TK-10
ACHN = system: ACHN
T47D = system: T47D
BT-549 = system: BT-549
MOLT-4 = system: MOLT-4
SF-539 = system: SF-539
DU-145 = system: DU-145
MDA-MB-231 = system: MDA-MB-231
K562 = system: K562
UO-31 = system: UO-31
SF-268 = system: SF-268
CAKI-1 = system: CAKI-1
SK-MEL-5 = system: SK-MEL-5
RPMI-8226 = system: RPMI-8226
MCF7 = system: MCF7
Malme-3M = system: Malme-3M
U-251 = system: U-251
EKVX = system: EKVX
SF-295 = system: SF-295
786-0 = system: 786-0
MDA-MB-435 = system: MDA-MB-435
HCC 2998 = system: HCC 2998
OVCAR-3 = system: OVCAR-3
M14 = system: M14
NCI/ADR-RES = system: NCI/ADR-RES
SNB-75 = system: SNB-75
SK-OV-3 = system: SK-OV-3
A549 = system: A549
HOP-92 = system: HOP-92
LOX IMVI = system: LOX IMVI
IGROV-1 = system: IGROV-1
SW-620 = system: SW-620
RXF 393 = system: RXF 393
HL-60 = system: HL-60
CCRF-CEM = system: CCRF-CEM
Hs-578T = system: Hs-578T
SR = system: SR
HT-29 = system: HT-29
OVCAR-8 = system: OVCAR-8

`COC(=O)C1=C(CCCCO[Si](C)(C)C(C)(C)C)NC(=O)N2[C@H](CCOCc3ccccc3)CC[C@@H]12` was tested, and the GI50 (HCT-15) was 40.6 µM, the GI50 (SNB-19) was 78.3 µM (inactive) and the GI50 (SK-MEL-2) was 75.3 µM (inactive). The GI50 (PC-3) was 26.9 µM (inactive), the GI50 (NCI-H226) was > 100 µM (inactive) and the GI50 (HOP-62) was > 100 µM (inactive). The GI50 (UACC-62) was > 100 µM (inactive), the GI50 (OVCAR-4) was > 100 µM (inactive) and the GI50 (UACC-257) was 24.7 µM (inactive). The GI50 (SN12C) was 30.1 µM (inactive), the GI50 (HCT-116) was 24 µM (inactive) and the GI50 (OVCAR-5) was > 100 µM (inactive). The GI50 (SK-MEL-28) was > 100 µM (inactive), the GI50 (COLO 205) was 27.9 µM (inactive) and the GI50 (NCI-H522) was 15.5 µM (inactive). The GI50 (KM12) was 49.5 µM (inactive), the GI50 (A498) was > 100 µM (inactive) and the GI50 (MDA-N) was 55.3 µM (inactive). For the same compound, the GI50 (NCI-H460) was 38 µM (inactive), the GI50 (NCI-H23) was 17.6 µM (inactive) and the GI50 (TK-10) was > 100 µM (inactive). The GI50 (ACHN) was > 100 µM (inactive), the GI50 (T47D) was 35.4 µM (inactive) and the GI50 (BT-549) was 45.8 µM (inactive). For the same compound, the GI50 (MOLT-4) was > 100 µM (inactive), the GI50 (SF-539) was 33.7 µM (inactive) and the GI50 (DU-145) was 75.2 µM (inactive). The GI50 (MDA-MB-231) was 44.9 µM (inactive), the GI50 (K562) was 87.9 µM (inactive) and the GI50 (UO-31) was 43.9 µM (inactive). The GI50 (SF-268) was > 100 µM (inactive), the GI50 (CAKI-1) was 34 µM (inactive) and the GI50 (SK-MEL-5) was 13 µM (inactive). The GI50 (RPMI-8226) was 49.4 µM (inactive), the GI50 (MCF7) was 34.4 µM (inactive) and the GI50 (Malme-3M) was 40 µM (inactive). For the same compound, the GI50 (U-251) was 23.7 µM (inactive), the GI50 (EKVX) was 31.5 µM (inactive) and the GI50 (SF-295) was 33.1 µM (inactive). For the same compound, the GI50 (786-0) was 44.7 µM (inactive), the GI50 (MDA-MB-435) was 39.2 µM (inactive) and the GI50 (HCC 2998) was > 100 µM (inactive). For the same compound, the GI50 (OVCAR-3) was 29.4 µM (inactive), the GI50 (M14) was 58.3 µM (inactive) and the GI50 (NCI/ADR-RES) was 32.7 µM (inactive). The GI50 (SNB-75) was 43.7 µM (inactive), the GI50 (SK-OV-3) was > 100 µM (inactive) and the GI50 (A549) was 26.7 µM (inactive). For the same compound, the GI50 (HOP-92) was 32.1 µM (inactive).

With `NC1=C(c2nc(-c3ccccc3)cs2)C(c2ccco2)c2c(c3ccccc3oc2=O)O1` (centres undefined) the GI50 (HCT-15) was > 100 µM, the GI50 (SNB-19) was > 100 µM (inactive) and the GI50 (LOX IMVI) was > 100 µM (inactive). For the same compound, the GI50 (IGROV-1) was > 100 µM (inactive), the GI50 (SK-MEL-2) was > 100 µM (inactive) and the GI50 (PC-3) was > 100 µM (inactive). For the same compound, the GI50 (SW-620) was > 100 µM (inactive), the GI50 (NCI-H226) was 38.2 µM (inactive) and the GI50 (HOP-62) was > 100 µM (inactive). The GI50 (RXF 393) was 40.5 µM (inactive), the GI50 (UACC-62) was > 100 µM (inactive) and the GI50 (OVCAR-4) was > 100 µM (inactive). For the same compound, the GI50 (UACC-257) was > 100 µM (inactive), the GI50 (SN12C) was > 100 µM (inactive) and the GI50 (HL-60) was > 100 µM (inactive). For the same compound, the GI50 (HCT-116) was > 100 µM (inactive), the GI50 (CCRF-CEM) was > 100 µM (inactive) and the GI50 (OVCAR-5) was > 100 µM (inactive). The GI50 (SK-MEL-28) was > 100 µM (inactive), the GI50 (COLO 205) was > 100 µM (inactive) and the GI50 (NCI-H522) was 76.2 µM (inactive). The GI50 (A498) was > 100 µM (inactive), the GI50 (MDA-N) was > 100 µM (inactive) and the GI50 (NCI-H460) was > 100 µM (inactive). For the same compound, the GI50 (NCI-H23) was > 100 µM (inactive), the GI50 (Hs-578T) was 3.32 µM (inactive) and the GI50 (TK-10) was > 100 µM (inactive). The GI50 (ACHN) was > 100 µM (inactive), the GI50 (BT-549) was > 100 µM (inactive) and the GI50 (SF-539) was > 100 µM (inactive). The GI50 (DU-145) was > 100 µM (inactive), the GI50 (MDA-MB-231) was > 100 µM (inactive) and the GI50 (K562) was > 100 µM (inactive). The GI50 (UO-31) was > 100 µM (inactive), the GI50 (SR) was > 100 µM (inactive) and the GI50 (HT-29) was > 100 µM (inactive). For the same compound, the GI50 (SF-268) was > 100 µM (inactive), the GI50 (CAKI-1) was > 100 µM (inactive) and the GI50 (SK-MEL-5) was > 100 µM (inactive). The GI50 (OVCAR-8) was > 100 µM (inactive), the GI50 (MCF7) was > 100 µM (inactive) and the GI50 (Malme-3M) was > 100 µM (inactive). For the same compound, the GI50 (U-251) was > 100 µM (inactive), the GI50 (EKVX) was > 100 µM (inactive) and the GI50 (SF-295) was > 100 µM (inactive). The GI50 (786-0) was > 100 µM (inactive), the GI50 (MDA-MB-435) was > 100 µM (inactive) and the GI50 (HCC 2998) was > 100 µM (inactive). The GI50 (OVCAR-3) was > 100 µM (inactive), the GI50 (M14) was > 100 µM (inactive) and the GI50 (NCI/ADR-RES) was > 100 µM (inactive). For the same compound, the GI50 (SNB-75) was > 100 µM (inactive), the GI50 (SK-OV-3) was > 100 µM (inactive) and the GI50 (A549) was > 100 µM (inactive). The GI50 (HOP-92) was 53.3 µM (inactive).
